Read-outs that look alike come from different tables or passages of the source.
Tests used:
A. baumannii = conditions: it is reported; cited from earlier work
[1] = system: ATCC19606 (a standard strain of A. baumannii); assay: Animal protection experiment, mice infected with ATCC19606; type: in vivo, Acinetobacter baumannii; conditions: for ED50: Acinetobacter baumannii; for inhibitory effect on the standard strain of A. baumannii without drug resistance (in words): infected ICR mice, summary of Table 1
Method: (§1) Tested animals were ICR mice. Tested bacterial strains were ATCC19606 (a standard strain of A. baumannii), CBP-R (a carbapenem-resistant strain of A. baumannii), and CPZ/S-R (a cefoperazone-sulbactam-resistant strain of A. baumannii). Among them, the standard strain was obtained from ATCC, and the other strains were clinically isolated.
(§2) Determining the dose ranges of the tested samples: The tested strains were diluted with 5% high active dry yeast to obtain bacterial dilutions of different concentrations (10^−1, 10^−2, 10^−3, and 10^−4), and then intraperitoneally injected into the tested animals in 0.5 ml/mice. The number of dead mice after infection was recorded. The minimum bacterial dose, which kills 100% members of the mice, was recorded as 1 MLD. The mice were infected with 1 MLD of bacteria which was formulated with 5% high active dry yeast Immediately and 6 hours after the infection, a preliminary experiment was carried out with high, median and low dosages of the tested samples, and the survival numbers of the mice after infection were recorded. Based on the results of the preliminary experiment, the administration dosages of the tested samples were designed for the animal protection experiment.
(§3) Animal protection experiment: After fasting with water only for 18 h, the mice (half male and female, 25-30 g body weight) were randomly divided into: (1) ATCC19606 group, (2) CBP-R group, and (3) CPZ/S-R group. Each group was treated with five concentrations of the samples, and included 10 animals. In addition, 10 animals were incorporated as a control group. Each mouse was intraperitoneally injected with 0.5 ml of 1 MLD bacterial solution to establish an infection model. At 0 h and 6 h after infection, the mice were subcutaneously injected with different concentrations of the tested samples, 0.2 ml/mice, and the mice of the control group were injected with the same volume of sterilized water. The animals were observed continuously for 7 days, and the death of animals in each group was recorded. The 50% effective dose (ED50) of each tested sample was calculated by the Bliss method. Smaller ED50 means that the tested sample has better anti-bacterial effect in vivo, and better protective effect on the experimental animals.

[2] = system: CBP-R (a carbapenem-resistant strain of A. baumannii); assay: Animal protection experiment, mice infected with CBP-R; type: in vivo, Acinetobacter baumannii; conditions: for ED50: Acinetobacter baumannii, read-out: ED50 for animals infected with A. baumannii, CBP-R a carbapenem-resistant A. baumannii; for inhibitory / anti-bacterial effect on drug-resistant strains of A. baumannii (in words): infected ICR mice, drug-resistant strains (CBP-R and CPZ/S-R), summary of Table 1
Method: as §1, §2, §3

[3] = system: CPZ/S-R (a cefoperazone-sulbactam-resistant strain of A. baumannii); assay: Animal protection experiment, mice infected with CPZ/S-R; type: in vivo; conditions: Acinetobacter baumannii, read-out: ED50 for animals infected with A. baumannii, CPZ/S-R a cefoperazone-sulbactam resistant A. baumannii
Method: as §1
as §2, with “Based on the results of the preliminary experiment, the administration dosages of the tested samples were designed for the animal protection experiment.” left out
Animal protection experiment: After fasting with water only for 18 h, the mice (half male and female, 25-30 g body weight) were randomly divided into: (1) ATCC19606 group, (2) CBP-R group, and (3) CPZ/S-R group. […] The animals were observed continuously for 7 days, and the death of animals in each group was recorded. […]

[4] = ICR mice, 1 MLD i.p. infection, s.c. dosing at 0 h and 6 h, 7 days observation, Bliss method

## CCN1CCN(C(=O)N[C@@H](C(=O)N[C@@H]2C(=O)N3[C@@H]2SC(C)(C)[C@@H]3C(=O)O)c2ccccc2)C(=O)C1=O [piperacillin]
A. baumannii
  resistance rate of A. baumannii: over 70%

## C[C@@H](O)[C@H]1C(=O)N2C(C(=O)O)=C(S[C@@H]3CN[C@H](C(=O)N(C)C)C3)[C@H](C)[C@H]12 [Meropenem]
[1]; ATCC19606, ICR mice, 1 MLD i.p. infection, s.c. dosing at 0 h and 6 h, 7 days observation, Bliss method, read-out: ED50 for animals infected with A. baumannii, ATCC19606 a standard strain
  ED50: < 20 mg/kg
[1]
  inhibitory effect on the standard strain of A. baumannii without drug resistance (in words): more advantageous in pharmaceutical efficacy
[2]; [4]
  ED50: > 200 mg/kg
[2]
  inhibitory / anti-bacterial effect on drug-resistant strains of A. baumannii (in words): significantly decreased inhibitory effect
[3]; [4]
  ED50: 100 to 200 mg/kg

## CC1(C)[C@H](C(=O)O)N2C(=O)C[C@H]2S1(=O)=O [Sulbactam, (2S,5R)-3,3-dimethyl-7-oxo-4-thia-1-azabicyclo[3.2.0]heptane-2-carboxylic acid-4,4-dioxide]
[1]; ATCC19606, read-out: ED50 for animals infected with A. baumannii, ATCC19606 a standard strain
  ED50: < 20 mg/kg
[1]
  inhibitory effect on the standard strain of A. baumannii without drug resistance (in words): more advantageous in pharmaceutical efficacy
[2]
  ED50: 100 to 200 mg/kg
  inhibitory / anti-bacterial effect on drug-resistant strains of A. baumannii (in words): significantly decreased inhibitory effect
[3]
  ED50: > 200 mg/kg

— US11534438B2, “Composition containing piperacillin, pharmaceutical formulation thereof and use thereof” (priority 2017, dated 2022)
